Source: patent publication US20250221983A1, “PHARMACEUTICAL COMPOSITION FOR PREVENTING RELAPSE INTO CANNABIS USE AND APPLICATION THEREOF” (Shenzhen ScienCare Pharmaceutical Co., Ltd, priority 2023, published 2025)
“Also recorded” adds a separate entry of the source.

What was measured:
Format in all cases: in vivo, LE rats
[1] = test system: LE rat self-administration model; test: Environmental cue-induced relapse test in WIN55,212-2 self-administration model; settings: rimonabant 2 mg/kg, implants 4 tablets/rat
Description: (§1) In each self-administration process, the effective lever was activated, and the injection system performed automatic administration ([…]). Each injection was about 0.1 mL, with a duration of 4 s-6 s. Meanwhile, each injection would be accompanied by the effective lever light turning on for 10 s and the room light turning off for 20 s. […] Data of activating the ineffective lever was recorded, but no drug injection was given. During the training, the computer automatically recorded the number of effective and ineffective lever presses and the number of injections. During the training, food was restricted to 12 g.

[2] = test system: LE rat self-administration; test: Addiction formation: WIN55,212-2 self-administration training
Description: as §1
In the control group and rimonabant group, sham operations were performed. After 3 days of postoperative care, addiction formation training was started on the fourth day.
In the control group and rimonabant group, rats were administered the corresponding compound 15 min before the daily training. The rimonabant was at a dosage of 2 mg/kg, i.p. In the control group, rats were administered normal saline, and in the implant administration groups, there would be no administration. The training operation was the same as the self-administration training in example 1. During the training, the computer automatically recorded the number of effective and ineffective lever presses and the number of injections. During the training, food was restricted to 12 g.

[3] = test system: LE rat self-administration; test: Regression of drug-seeking behavior after self-administration training
Description: After the establishment of the self-administration model, the rats received 2 h of environmental regression for each round of regression training. During the regression, only the spatial environment and lever during the training were presented, without other clues such as lights and pump sounds as well as drug injections. The computer automatically recorded the number of behavioral responses of rats, and the rats reached the regression criteria (i.e., the total number of effective lever presses decreased to 20% of the total number of effective lever presses on the first day of the regression training or less than 10 times).

[4] = test system: LE rat self-administration model; test: Drug (WIN55,212-2) and environmental cue-induced relapse test in self-administration model; settings: rimonabant 2 mg/kg, implants 4 tablets/rat
Description: The rats received 2 h of environmental regression again. During the regression, only the spatial environment during the self-administration training was presented, without other clues such as lights and pump sounds as well as drug injections. The computer automatically recorded the number of behavioral responses of rats, and the regression was continued until reaching the criteria.
In the rimonabant group, rats were administered the rimonabant injection (2 mg/kg, ip) 15 min before the test through intraperitoneal injection at a dose of 2 mg per kilogram of body weight. In the control group, rats were administered normal saline 15 min before the test. In the implant administration groups, there would be no administration. All rats were administered cannabis (WIN55,212-2 injection 0.3 mg/kg, ip) through intraperitoneal injection at a dose of […] of body weight, and then a 2-h drug and environmental cue-induced relapse test was immediately performed. The cues were consistent with those of self-administration training, including levers and syringe pump sound, but no drug in the syringe pump. The number of injections and effective lever pressing data were recorded by the computer.
In the control group, rats were administered normal saline 15 min before the test, and in the implant groups, there would be no administration. All rats were administered WIN55,212-2 (0.3 mg/kg, i.p) through intraperitoneal administration, and then a 2-h drug and environmental cue-induced relapse test was immediately performed. The cues were consistent with those of self-administration training, including levers and syringe pump sound, but no drug in the syringe pump. The number of injections and effective lever pressing data were recorded by the computer.

[5] = 2 h environmental cue-induced relapse test, n = 10
[6] = last regression before cue test, n = 10
[7] = female LE rats, rimonabant 2 mg/kg, implants 4 tablets/rat, n = 10
[8] = 2 h test after WIN55,212-2 ip, n = 10
[9] = re-regression before cue + drug test, n = 10

## Cc1c(C(=O)NN2CCCCC2)nn(-c2ccc(Cl)cc2Cl)c1-c1ccc(Cl)cc1 [Rimonabant]
[1]; [5]
  Number of effective lever presses, Cue priming: 57.70 ± 10.27
  Number of ineffective lever presses, Cue priming: 12.10 ± 3.33
[1]; [6]
  Number of effective lever presses, Last-Ext: 6.80 ± 1.62
  Number of ineffective lever presses, Last-Ext: 3.10 ± 0.86
[1]
  cue-induced relapse behavior (number of effective lever presses compared with the control group), in words: no significant inhibition effect; also recorded: not significant
[2]; compared with the control group
  inhibition of the increase in the number of effective lever presses caused by addiction formation of win55,212-2, in words: significantly inhibited; also recorded: significant inhibition effect
[2]; [7]
  Addiction formation (26 days): Number of effective lever presses: 45.70 ± 8.21
  Addiction formation (26 days): Number of ineffective lever presses: 9.49 ± 1.05
[3]; compared with other groups
  effect on the regression process of cannabis addiction, in words: may accelerate the regression process and reduce the regression days
[3]; [7]
  Regression (13 sessions): First stabilization: 7 days
  Regression (13 sessions): Number of effective lever presses: 9.27 ± 2.21
[4]; [8]
  Number of effective lever presses, Cue + drug priming: 63.50 ± 16.15
  Number of ineffective lever presses, Cue + drug priming: 8.10 ± 2.08
[4]; [9]
  Number of effective lever presses, Re-Ext: 10.30 ± 2.72
  Number of ineffective lever presses, Re-Ext: 5.20 ± 3.0
[4]
  cue and drug-induced relapse behavior (number of effective lever presses compared with the control group), in words: no significant inhibition effect; also recorded: not significant
